Values joined by “and” are separate entries in the source; they are usually repeats but may differ in a detail not shown here. Equal entries are not always repeated. Inconclusive results and toxic doses are left out. Cut-off read from the data, not from the text of the source: active = T/C of 150% or more; inactive = T/C below 125%.
System: L1210 leukemia ip in BDF1 mice, survival T/C
Assay: NCI In Vivo Anticancer Drug Screen. Data for tumor model L1210 Leukemia (intraperitoneal) in B6D2F1 (BDF1) mice
Conditions: higher = longer survival
Method in brief: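 Transplanted-tumor mice were given test agent; controls received vehicle only. Survival readings from the two groups were divided (treated over control).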

[1] = endpoint: mean survival time, dose: 100.0 mg/kg/injection, schedule: Q04DX003 (ip), vehicle: saline
[2] = endpoint: mean survival time, dose: 200.0 mg/kg/injection, schedule: Q04DX003 (ip), vehicle: saline
[3] = endpoint: mean survival time, dose: 400.0 mg/kg/injection, schedule: Q04DX003 (ip), vehicle: saline
[4] = endpoint: mean survival time, dose: 200.0 mg/kg/injection, schedule: Q01DX001 (ip), vehicle: saline
[5] = endpoint: mean survival time, dose: 100.0 mg/kg/injection, schedule: Q01DX001 (ip), vehicle: saline
[6] = endpoint: mean survival time, dose: 100.0 mg/kg/injection, schedule: Q01DX009 (ip), vehicle: saline with Tween-80
[7] = endpoint: mean survival time, dose: 100.0 mg/kg/injection, schedule: Q04DX003 (ip), vehicle: saline with Tween-80
[8] = endpoint: mean survival time, dose: 200.0 mg/kg/injection, schedule: Q04DX003 (ip), vehicle: saline with Tween-80
[9] = endpoint: mean survival time, dose: 400.0 mg/kg/injection, schedule: Q04DX003 (ip), vehicle: saline with Tween-80
[10] = endpoint: mean survival time, dose: 100.0 mg/kg/injection, schedule: Q01DX001 (ip), vehicle: Klucel (hydroxypropylcellulose) (HPC)
[11] = endpoint: mean survival time, dose: 200.0 mg/kg/injection, schedule: Q01DX001 (ip), vehicle: Klucel (hydroxypropylcellulose) (HPC)
[12] = endpoint: mean survival time, dose: 100.0 mg/kg/injection, schedule: Q01DX009 (ip), vehicle: Klucel (hydroxypropylcellulose) (HPC)
[13] = endpoint: mean survival time, dose: 200.0 mg/kg/injection, schedule: Q01DX009 (ip), vehicle: Klucel (hydroxypropylcellulose) (HPC)
[14] = endpoint: mean survival time, dose: 100.0 mg/kg/injection, schedule: Q04DX003 (ip), vehicle: Klucel (hydroxypropylcellulose) (HPC)
[15] = endpoint: mean survival time, dose: 200.0 mg/kg/injection, schedule: Q04DX003 (ip), vehicle: Klucel (hydroxypropylcellulose) (HPC)
[16] = endpoint: mean survival time, dose: 400.0 mg/kg/injection, schedule: Q04DX003 (ip), vehicle: Klucel (hydroxypropylcellulose) (HPC)

Measured: T/C

O=C1CCSCCN1
inactive: endpoint: mean survival time, dose: 100.0 mg/kg/injection, schedule: Q01DX009 (ip), vehicle: saline 98 % of control | [1] 97 % of control | endpoint: mean survival time, dose: 200.0 mg/kg/injection, schedule: Q01DX009 (ip), vehicle: saline 103 % of control | [2] 97 % of control | endpoint: mean survival time, dose: 400.0 mg/kg/injection, schedule: Q01DX009 (ip), vehicle: saline 101 % of control | [3] 95 % of control

COc1cc([N+](=O)[O-])c2nc(/C=N/NC(N)=S)ccc2c1[N+](=O)[O-]
inactive: [4] 86 % of control

CC(C)/C(=N\N=C(\c1ccccc1)C(C)C)c1ccccc1
inactive: endpoint: mean survival time, dose: 100.0 mg/kg/injection, schedule: Q04DX002 (ip), vehicle: saline with Tween-80 94 % of control | endpoint: mean survival time, dose: 200.0 mg/kg/injection, schedule: Q04DX002 (ip), vehicle: saline with Tween-80 87 % of control | endpoint: mean survival time, dose: 400.0 mg/kg/injection, schedule: Q04DX002 (ip), vehicle: saline with Tween-80 97 % of control

C[Si](C)(C)OC(C(F)(F)F)C(F)(F)F
inactive: endpoint: mean survival time, dose: 100.0 mg/kg/injection, schedule: Q01DX001 (ip), vehicle: steriod suspending solution 98 % of control | endpoint: mean survival time, dose: 200.0 mg/kg/injection, schedule: Q01DX001 (ip), vehicle: steriod suspending solution 96 % of control | endpoint: mean survival time, dose: 400.0 mg/kg/injection, schedule: Q01DX001 (ip), vehicle: steriod suspending solution 86 % of control

C/C(=N/NC(N)=S)c1ccncc1
inactive: endpoint: mean survival time, dose: 2.5 mg/kg/injection, schedule: Q01DX009 (ip), vehicle: Klucel (hydroxypropylcellulose) (HPC) 106 % of control | endpoint: mean survival time, dose: 5.0 mg/kg/injection, schedule: Q01DX009 (ip), vehicle: Klucel (hydroxypropylcellulose) (HPC) 103 % of control | endpoint: mean survival time, dose: 10.0 mg/kg/injection, schedule: Q01DX009 (ip), vehicle: Klucel (hydroxypropylcellulose) (HPC) 94 % of control

O=C(O)CNC(=O)c1ccc(NC(=O)CBr)cc1
inactive: endpoint: mean survival time, dose: 50.0 mg/kg/injection, schedule: Q01DX001 (ip), vehicle: saline 104 % of control | [5] 104 % of control | [4] 109 % of control

C=CC(C)=O.C=CC(C)=O.C=CC(C)=O.[W]
inactive: endpoint: mean survival time, dose: 100.0 mg/kg/injection, schedule: Q04DX003 (ip), vehicle: other 94 % of control | endpoint: mean survival time, dose: 200.0 mg/kg/injection, schedule: Q04DX003 (ip), vehicle: other 92 % of control | endpoint: mean survival time, dose: 400.0 mg/kg/injection, schedule: Q04DX003 (ip), vehicle: other 97 % of control

NN1CC(=O)NC1=O
inactive: [1] 100 % of control | [2] 102 % of control | [3] 100 % of control

O=[N+]([O-])c1ccccc1NS(=O)(=O)c1ccccc1
inactive: [6] 95 % of control | [7] 93 % of control | endpoint: mean survival time, dose: 200.0 mg/kg/injection, schedule: Q01DX009 (ip), vehicle: saline with Tween-80 96 % of control | [8] 97 % of control | endpoint: mean survival time, dose: 400.0 mg/kg/injection, schedule: Q01DX009 (ip), vehicle: saline with Tween-80 98 % of control | [9] 97 % of control

[O-][n+]1c(C(Cl)(Cl)Cl)cc(Cl)nc1Cl
inactive: [10] 98 % of control | [11] 97 % of control

Cc1ccc([P+](Cc2ccccc2)(c2ccccc2)c2cccc3ccccc23)cc1 (stereo not drawn)
inactive: endpoint: mean survival time, dose: 15.0 mg/kg/injection, schedule: Q01DX001 (ip), vehicle: carboxymethylcellulose (CMC) 94 % of control | endpoint: mean survival time, dose: 30.0 mg/kg/injection, schedule: Q01DX001 (ip), vehicle: carboxymethylcellulose (CMC) 93 % of control

OC1(C#CI)CCCCC1
inactive: [12] 100 % of control | [13] 96 % of control

O/N=C1/CCCC/C1=C/c1ccccc1Cl
inactive: [7] 92 % of control | [8] 100 % of control | [9] 100 % of control

COC(=O)NCCc1cc(OC)c(OC)cc1Br
inactive: [7] 86 % of control | [8] 91 % of control | [9] 91 % of control

CC(=O)NC1CCC(CC(=O)O)CC1 (stereo not drawn)
inactive: [10] 94 % of control and 96 % of control | [12] 98 % of control | [14] 92 % of control | [11] 94 % of control and 102 % of control | [13] 87 % of control | [15] 99 % of control | endpoint: mean survival time, dose: 400.0 mg/kg/injection, schedule: Q01DX001 (ip), vehicle: Klucel (hydroxypropylcellulose) (HPC) 91 % of control and 94 % of control | [16] 95 % of control

CCN(CC)c1ccc(C(=S)c2ccc(N(CC)CC)cc2)cc1
inactive: endpoint: mean survival time, dose: 100.0 mg/kg/injection, schedule: Q01DX001 (ip), vehicle: other 91 % of control | endpoint: mean survival time, dose: 200.0 mg/kg/injection, schedule: Q01DX001 (ip), vehicle: other 91 % of control | endpoint: mean survival time, dose: 400.0 mg/kg/injection, schedule: Q01DX001 (ip), vehicle: other 95 % of control

CCN(C(=O)CCl)c1ccccc1C
inactive: endpoint: mean survival time, dose: 50.0 mg/kg/injection, schedule: Q01DX009 (ip), vehicle: saline with Tween-80 91 % of control | [6] 100 % of control

O=C(/C=C/C=C/c1cccc([N+](=O)[O-])c1)CCl
inactive: [5] 101 % of control | [4] 95 % of control | endpoint: mean survival time, dose: 400.0 mg/kg/injection, schedule: Q01DX001 (ip), vehicle: saline 103 % of control

COc1cc([C@@H]2c3cc4c(c(O)c3C[C@H]3COC(=O)[C@@H]32)OCO4)cc(OC)c1O
inactive: endpoint: mean survival time, dose: 0.06 mg/kg/injection, schedule: Q01DX Z (ip), vehicle: saline 100 % of control | endpoint: mean survival time, dose: 0.12 mg/kg/injection, schedule: Q01DX Z (ip), vehicle: saline 100 % of control | endpoint: mean survival time, dose: 0.2 mg/kg/injection, schedule: Q01DX001 (ip), vehicle: carboxymethylcellulose (CMC) 119 % of control | endpoint: mean survival time, dose: 0.25 mg/kg/injection, schedule: Q01DX Z (ip), vehicle: saline 100 % of control | endpoint: mean survival time, dose: 0.5 mg/kg/injection, schedule: Q01DX001 (ip), vehicle: carboxymethylcellulose (CMC) 107 % of control | endpoint: mean survival time, dose: 0.5 mg/kg/injection, schedule: Q01DX Z (ip), vehicle: saline 100 % of control | endpoint: mean survival time, dose: 1.0 mg/kg/injection, schedule: Q01DX001 (ip), vehicle: carboxymethylcellulose (CMC) 107 % of control | endpoint: mean survival time, dose: 2.0 mg/kg/injection, schedule: Q01DX001 (ip), vehicle: carboxymethylcellulose (CMC) 111 % of control | endpoint: mean survival time, dose: 3.6 mg/kg/injection, schedule: Q01DX001 (ip), vehicle: carboxymethylcellulose (CMC) 103 % of control | endpoint: mean survival time, dose: 4.0 mg/kg/injection, schedule: Q01DX001 (ip), vehicle: carboxymethylcellulose (CMC) 119 % of control | endpoint: mean survival time, dose: 5.3 mg/kg/injection, schedule: Q01DX001 (ip), vehicle: carboxymethylcellulose (CMC) 108 % of control | endpoint: mean survival time, dose: 8.0 mg/kg/injection, schedule: Q01DX001 (ip), vehicle: carboxymethylcellulose (CMC) 113 % of control | endpoint: median survival time, dose: 0.06 mg/kg/injection, schedule: Q01DX009 (ip), vehicle: Klucel (hydroxypropylcellulose) (HPC) 100 % of control | endpoint: median survival time, dose: 0.12 mg/kg/injection, schedule: Q01DX009 (ip), vehicle: Klucel (hydroxypropylcellulose) (HPC) 100 % of control | endpoint: median survival time, dose: 0.25 mg/kg/injection, schedule: Q01DX009 (ip), vehicle: Klucel (hydroxypropylcellulose) (HPC) 100 % of control | endpoint: median survival time, dose: 0.5 mg/kg/injection, schedule: Q01DX009 (ip), vehicle: Klucel (hydroxypropylcellulose) (HPC) 111 % of control

O=C1c2cc(Cl)ccc2-c2ccc([N+](=O)[O-])cc21
inactive: [14] 100 % of control | [15] 97 % of control | [16] 106 % of control

— PubChem BioAssay AID248 (DTP/NCI, 2004)
